Source: patent US8889679B2, “Glutaraldehyde based biocidal compositions and methods of use” (Dow Global Technologies LLC, priority 2009, dated 2014)

What was measured:
[1] = system: oil field isolated anaerobic SRB consortium; assay: Biocidal efficacy against anaerobic bacteria: minimum biocide concentration for complete bacteria kill (MBC), 40° C., 24 hour; format: cell-based, anaerobic sulfate-reducing bacteria (SRB); settings: for MBC (active ppm) Glutaraldehyde: glutaraldehyde concentration alone or in combination
Protocol: (§1) The synergy indexes reported in the following examples are calculated using the following equation: Synergy Index=Ca/CA+Cb/CB
(§2) where Ca: Concentration of biocide A required to achieve a certain level or complete bacterial kill when used in combination;
(§3) CA: Concentration of biocide A required to achieve a certain level or complete bacterial kill when used alone;
(§4) Cb: Concentration of biocide B required to achieve a certain level or complete bacterial kill when used in combination; and
(§5) CB: Concentration of biocide B required to achieve a certain level or complete bacterial kill when used alone.
(§6) A synergy index (SI) of 1 indicates additivity, a synergy index of less than 1 indicates synergy, and a synergy index greater than 1 indicates antagonism.
(§7) Various methods known to those skilled in the art can be used for evaluating biocidal efficacy. In the examples below, aliquots of the biocide-treated samples are removed at predetermined time points and the biocide concentration required to achieve a certain level or complete bacterial kill is determined by culture-based methods including serial dilution. In some examples, the method is based or adapted (e.g., for high temperature testing or for the presence of sulfide) from the methodology described in international patent publication WO 2009/039004, which is incorporated herein by reference.
Inside an anaerobic chamber, a deaerated sterile salt solution (3.1183 g of NaCl, 1.3082 mg of NaHCO3, 47.70 mg of KCl, 72.00 mg of CaCl2, 54.49 mg of MgSO4, 172.28 mg of Na2SO4, 43.92 mg of Na2CO3 in 1 L water) is contaminated with an oil field isolated anaerobic SRB consortium at final bacterial concentrations of 10^5-10^6 CFU/mL. Aliquots of this contaminated water are then treated with biocide solution (single or in combination) at various concentrations.

[2] = system: oil field isolated anaerobic SRB consortium; assay: Biocidal efficacy against anaerobic bacteria for high temperature and sulfide-rich conditions: lowest concentration for 99.9% bacterial reduction in 2 hours; format: cell-based, anaerobic sulfate-reducing bacteria (SRB); settings: 80° C., 10 ppm sulfide ion; for Dosage required for 99.9% bacterial kill in 2 h (active ppm) Glutaraldehyde: glutaraldehyde concentration alone or in combination
Protocol: as §1, §2, §3, §4, §5, §6, §7
Inside an anaerobic chamber, biocide solutions (single or in combination) are prepared at various concentrations in a salt solution (3.1183 g of NaCl, 1.3082 mg of NaHCO3, 47.70 mg of KCl, 72.00 mg of CaCl2, 54.49 mg of MgSO4, 172.28 mg of Na2SO4, 43.92 mg of Na2CO3 in 1 L water). The biocide solutions are challenged with 10^4 to 10^5 CFU/mL of an oil field isolated anaerobic SRB consortium and 10 ppm sulfide ion. The mixtures are incubated at 80° C. under anaerobic conditions for 2 hours after which the biocidal efficacy against the field SRB consortium is evaluated. The biocidal efficacy is determined by selecting the lowest biocide concentration required to achieve at least a 99.9% bacterial reduction in 2 hours. Synergy index is then calculated.

[3] = glutaraldehyde/CTAC series, CTAC concentration alone or in combination
[4] = glutaraldehyde/HHT series, HHT concentration alone or in combination
[5] = glutaraldehyde/tris nitro series
[6] = glutaraldehyde/tris nitro series, tris nitro concentration alone or in combination

ClC=CC[N+]12CN3CN(CN(C3)C1)C2 [CTAC, 1-(3-chloroallyl)-3,5,7-triaza-1-azoniaadamantane]
MBC (active ppm) CTAC [1, 3]: 133.3 active ppm
Dosage required for 99.9% bacterial kill in 2 h (active ppm) CTAC [2, 3]: 375.0 active ppm

OCCN1CN(CCO)CN(CCO)C1 [HHT, hexahydro-1,3,5-tris(2-hydroxyethyl)-s-triazine]
MBC (active ppm) HHT [1, 4]: 133.3 active ppm
Dosage required for 99.9% bacterial kill in 2 h (active ppm) HHT [2, 4]: 125.0 active ppm

O=CCCCC=O [glutaraldehyde]
MBC (active ppm) Glutaraldehyde ([1]; glutaraldehyde/CTAC series): 5.3 active ppm
MBC (active ppm) Glutaraldehyde ([1]; glutaraldehyde/HHT series): 4.0 active ppm
MBC (active ppm) Glutaraldehyde [1, 5]: 4.0 active ppm
Dosage required for 99.9% bacterial kill in 2 h (active ppm) Glutaraldehyde ([2]; glutaraldehyde/CTAC series): 8.7 active ppm
Dosage required for 99.9% bacterial kill in 2 h (active ppm) Glutaraldehyde ([2]; glutaraldehyde/HHT series): 15.6 active ppm
Dosage required for 99.9% bacterial kill in 2 h (active ppm) Glutaraldehyde [2, 5]: 22.5 active ppm

O=[N+]([O-])C(CO)(CO)CO [tris nitro, tris(hydroxymethyl)nitromethane]
MBC (active ppm) Tris Nitro [1, 6]: 44.4 active ppm
Dosage required for 99.9% bacterial kill in 2 h (active ppm) Tris Nitro [2, 6]: 180.0 active ppm
